Test results taken from patent publication US11612661B2 (priority 2019, dated 2023).
Numbered stars: 1 amine (or outer) side, 2 acyl side, 3 side chain; on linkers, the order of the positions; unused ones are H or OH. Bridge positions count the residues as written; N and C are the ends. Square brackets hold non-standard residues; d marks the D form. Triazole bridges read from a SMILES are 1,4-linked. Peptide text beside a SMILES is read from it. Gly(αS-SH) = O=C([C@@H](N[*:1])S[*:3])[*:2]; Tyr(3-I) = N[C@@H](Cc1ccc(O)c(I)c1)C(=O)O; Orn(N3) = [N-]=[N+]=NCCC[C@H](N)C(=O)O; Dap(N3) = [N-]=[N+]=NC[C@H](N)C(=O)O; Aha = [N-]=[N+]=NCC[C@H](N)C(=O)O; Cit = NC(=O)NCCC[C@H](N)C(=O)O; Hpra = C#CCC[C@H](N)C(=O)O; Pra = C#CC[C@H](N)C(=O)O

Key:
rat α9α10 nAChR = rat α9α10 nAChR (Rattus norvegicus, UniProt P43144+Q9JLB5); assay: cell-based; type: cell-based; settings: α9α10 nAChR IC50 (nM) Rat
human α9α10 nAChR = human α9α10 nAChR (Homo sapiens, UniProt Q9GZZ6+Q9UGM1); assay: cell-based; type: cell-based
Sequence of human α9α10 nAChR (Q9UGM1 26-479 limits assumed): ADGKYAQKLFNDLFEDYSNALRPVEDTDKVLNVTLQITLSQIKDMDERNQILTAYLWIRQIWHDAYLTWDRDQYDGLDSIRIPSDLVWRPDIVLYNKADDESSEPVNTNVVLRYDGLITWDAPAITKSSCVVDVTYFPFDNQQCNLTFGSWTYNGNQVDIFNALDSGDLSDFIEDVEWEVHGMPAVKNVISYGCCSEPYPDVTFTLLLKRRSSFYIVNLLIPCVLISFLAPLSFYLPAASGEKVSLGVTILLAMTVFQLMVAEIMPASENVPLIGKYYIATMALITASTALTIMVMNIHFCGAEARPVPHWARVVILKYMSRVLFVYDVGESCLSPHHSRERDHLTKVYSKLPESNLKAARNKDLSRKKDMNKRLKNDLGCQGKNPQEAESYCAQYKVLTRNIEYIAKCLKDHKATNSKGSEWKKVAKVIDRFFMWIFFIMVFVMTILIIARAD
Sequence of human α9α10 nAChR (Q9GZZ6 25-450 limits assumed): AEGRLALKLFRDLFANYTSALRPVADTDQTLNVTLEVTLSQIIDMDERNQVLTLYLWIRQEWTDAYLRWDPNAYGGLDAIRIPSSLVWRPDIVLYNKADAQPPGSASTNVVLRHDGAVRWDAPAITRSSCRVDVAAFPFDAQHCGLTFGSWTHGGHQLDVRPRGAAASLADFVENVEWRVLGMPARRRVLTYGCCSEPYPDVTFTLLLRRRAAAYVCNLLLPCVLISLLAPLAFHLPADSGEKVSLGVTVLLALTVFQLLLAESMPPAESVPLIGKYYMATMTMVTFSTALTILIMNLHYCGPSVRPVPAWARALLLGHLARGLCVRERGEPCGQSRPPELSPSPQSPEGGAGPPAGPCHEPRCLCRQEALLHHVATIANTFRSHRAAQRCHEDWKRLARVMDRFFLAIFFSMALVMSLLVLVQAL

Sequence of rat α9α10 nAChR (P43144 26-479 limits assumed): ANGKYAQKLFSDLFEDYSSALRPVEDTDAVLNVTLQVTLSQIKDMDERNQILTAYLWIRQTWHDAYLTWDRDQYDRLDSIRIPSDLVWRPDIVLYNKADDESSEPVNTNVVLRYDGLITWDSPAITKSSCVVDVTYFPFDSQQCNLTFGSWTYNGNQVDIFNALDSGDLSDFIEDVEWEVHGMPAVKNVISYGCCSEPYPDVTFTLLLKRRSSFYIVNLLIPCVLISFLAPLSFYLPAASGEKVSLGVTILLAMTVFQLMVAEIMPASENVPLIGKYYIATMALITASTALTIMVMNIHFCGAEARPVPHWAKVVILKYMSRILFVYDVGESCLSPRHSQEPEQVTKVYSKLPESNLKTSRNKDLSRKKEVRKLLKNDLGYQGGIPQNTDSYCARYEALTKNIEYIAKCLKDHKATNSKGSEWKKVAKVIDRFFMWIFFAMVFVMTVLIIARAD
Sequence of rat α9α10 nAChR (Q9JLB5 25-447 limits assumed): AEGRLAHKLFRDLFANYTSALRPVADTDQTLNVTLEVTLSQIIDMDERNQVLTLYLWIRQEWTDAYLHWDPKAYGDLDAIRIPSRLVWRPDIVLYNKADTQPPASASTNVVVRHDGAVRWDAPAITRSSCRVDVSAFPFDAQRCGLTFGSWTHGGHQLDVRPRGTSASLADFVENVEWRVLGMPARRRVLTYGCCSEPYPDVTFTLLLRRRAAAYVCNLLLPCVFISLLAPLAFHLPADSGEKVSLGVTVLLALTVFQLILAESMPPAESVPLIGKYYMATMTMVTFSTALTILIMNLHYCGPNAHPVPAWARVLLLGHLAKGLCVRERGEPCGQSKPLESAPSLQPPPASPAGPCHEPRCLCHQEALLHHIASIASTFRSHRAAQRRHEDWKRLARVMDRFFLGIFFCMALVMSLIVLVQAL

SMILES	IC50 (rat α9α10 nAChR)	IC50 (human α9α10 nAChR)
C[C@@H](O)[C@@H]1NC(=O)[C@@H]2Cc3cn(nn3)CCC[C@@H](C(=O)N[C@@H](Cc3ccc(O)cc3)C(=O)O)NC(=O)[C@H](CCC(N)=O)NC(=O)[C@H](Cc3ccc(O)c(I)c3)NC(=O)[C@H](CCCNC(N)=O)NC(=O)[C@H](CSSC[C@H](NC(=O)CN)C(=O)N2)NC(=O)[C@H](CCCNC(=N)N)NC(=O)[C@@H]2CCCN2C(=O)[C@H](CC(=O)O)NC1=O [Ib, L-tyrosine, glycyl-L-cysteinyl-L-alanyl-L-threonyl-L-α-aspartyl-L-prolyl-L-arginyl-L-cysteinyl-N5-(aminocarbonyl)-L-ornithyl-L-3-iodotyrosyl-L-glutaminyl-L-norvalyl-cyclic (2→8)-disulfide-cyclic 3^3,12^5-(1H-1,2,3-triazole-4,1-diyl)] (H-GC[Pra]TDPRC[Cit][Tyr(3-I)]Q[Orn(N3)]Y-OH; disulfide 2-8; triazole 3-12)	7 nM	37 ± 1.3 nM
C[C@@H](O)[C@@H]1NC(=O)[C@H]2NC(=O)[C@@H](NC(=O)CN)Cc3cn(nn3)CCC[C@H](NC(=O)[C@H](CCCNC(=N)N)NC(=O)[C@@H]3CCCN3C(=O)[C@H](CC(=O)O)NC1=O)C(=O)N[C@@H](CCCNC(N)=O)C(=O)N[C@@H](Cc1ccc(O)c(I)c1)C(=O)N[C@@H](CCC(N)=O)C(=O)N[C@H](C(=O)N[C@@H](Cc1ccc(O)cc1)C(N)=O)CSS2 [Ic, L-tyrosinamide, glycyl-L-alanyl-L-cysteinyl-L-threonyl-L-α-aspartyl-L-prolyl-L-arginyl-L-norvalyl-N5-(aminocarbonyl)-L-ornithyl-L-3-iodotyrosyl-L-glutaminyl-L-cysteinyl-cyclic 2^3,8^5-(1H-1,2,3-triazole-4,1-diyl)-cyclic-(3→12)-disulfide] (H-G[Pra][Gly(αS-SH)]TDPR[Orn(N3)][Cit][Tyr(3-I)]QCY-NH2; triazole 2-8; disulfide 3-12)	69 ± 8.5 nM	152 ± 71 nM
C[C@@H](O)[C@@H]1NC(=O)[C@H]2NC(=O)[C@@H](NC(=O)CN)CCCn3cc(nn3)C[C@H](NC(=O)[C@H](CCCNC(=N)N)NC(=O)[C@@H]3CCCN3C(=O)[C@H](CC(=O)O)NC1=O)C(=O)N[C@@H](CCCNC(N)=O)C(=O)N[C@@H](Cc1ccc(O)c(I)c1)C(=O)N[C@@H](CCC(N)=O)C(=O)N[C@H](C(=O)N[C@@H](Cc1ccc(O)cc1)C(N)=O)CSS2 [Id, L-tyrosinamide, glycyl-L-norvalyl-L-cysteinyl-L-threonyl-L-α-aspartyl-L-prolyl-L-arginyl-L-alanyl-N5-(aminocarbonyl)-L-ornithyl-L-3-iodotyrosyl-L-glutaminyl-L-cysteinyl-cyclic 2^5,8^3-(1H-1,2,3-triazole-1,4-diyl)-cyclic-(3→12)-disulfide] (H-G[Orn(N3)][Gly(αS-SH)]TDPR[Pra][Cit][Tyr(3-I)]QCY-NH2; triazole 2-8; disulfide 3-12)	≥ 1000 nM	≥ 1000 nM
C[C@@H](O)[C@@H]1NC(=O)[C@@H]2CCCn3cc(nn3)C[C@@H](C(=O)N[C@@H](Cc3ccc(O)cc3)C(N)=O)NC(=O)[C@H](CCC(N)=O)NC(=O)[C@H](Cc3ccc(O)c(I)c3)NC(=O)[C@H](CCCNC(N)=O)NC(=O)[C@H](CSSC[C@H](NC(=O)CN)C(=O)N2)NC(=O)[C@H](CCCNC(=N)N)NC(=O)[C@@H]2CCCN2C(=O)[C@H](CC(=O)O)NC1=O [Ie, L-tyrosinamide, glycyl-L-cysteinyl-L-norvalyl-L-threonyl-L-α-aspartyl-L-prolyl-L-arginyl-L-cysteinyl-N5-(aminocarbonyl)-L-ornithyl-L-3-iodotyrosyl-L-glutaminyl-L-alanyl-cyclic (2→8)-disulfide-cyclic 3^5,12^3-(1H-1,2,3-triazole-1,4-diyl)] (H-GC[Orn(N3)]TDPRC[Cit][Tyr(3-I)]Q[Pra]Y-NH2; disulfide 2-8; triazole 3-12)	6.6 ± 1.7 nM	115 ± 56 nM
C[C@@H](O)[C@@H]1NC(=O)[C@@H]2Cc3cn(nn3)C[C@@H](C(=O)N[C@@H](Cc3ccc(O)cc3)C(N)=O)NC(=O)[C@H](CCC(N)=O)NC(=O)[C@H](Cc3ccc(O)c(I)c3)NC(=O)[C@H](CCCNC(N)=O)NC(=O)[C@H](CSSC[C@H](NC(=O)CN)C(=O)N2)NC(=O)[C@H](CCCNC(=N)N)NC(=O)[C@@H]2CCCN2C(=O)[C@H](CC(=O)O)NC1=O [If, L-tyrosinamide, glycyl-L-cysteinyl-L-alanyl-L-threonyl-L-α-aspartyl-L-prolyl-L-arginyl-L-cysteinyl-N5-(aminocarbonyl)-L-ornithyl-L-3-iodotyrosyl-L-glutaminyl-L-alanyl-cyclic (2→8)-disulfide-cyclic 3^3,12^3-(1H-1,2,3-triazole-4,1-diyl)] (H-GC[Pra]TDPRC[Cit][Tyr(3-I)]Q[Dap(N3)]Y-NH2; disulfide 2-8; triazole 3-12)	12.5 ± 8.7 nM	1520 ± 116 nM
C[C@@H](O)[C@@H]1NC(=O)[C@@H]2CCc3cn(nn3)CCC[C@@H](C(=O)N[C@@H](Cc3ccc(O)cc3)C(=O)O)NC(=O)[C@H](CCC(N)=O)NC(=O)[C@H](Cc3c[nH]c4ccccc34)NC(=O)[C@H](CCCNC(N)=O)NC(=O)[C@H](CSSC[C@H](NC(=O)CN)C(=O)N2)NC(=O)[C@H](CCCNC(=N)N)NC(=O)[C@@H]2CCCN2C(=O)[C@H](CC(=O)O)NC1=O [Ig, L-tyrosine, glycyl-L-cysteinyl-(2S)-2-aminobutanoyl-L-threonyl-L-α-aspartyl-L-prolyl-L-arginyl-L-cysteinyl-N5-(aminocarbonyl)-L-ornithyl-L-tryptophyl-L-glutaminyl-L-norvalyl-cyclic (2→8)-disulfide-cyclic 3^4,12^5-(1H-1,2,3-triazole-4,1-diyl)] (H-GC[Hpra]TDPRC[Cit]WQ[Orn(N3)]Y-OH; disulfide 2-8; triazole 3-12)	22 ± 1.1 nM	19 nM
C[C@@H](O)[C@@H]1NC(=O)[C@@H]2CCc3cn(nn3)CC[C@@H](C(=O)N[C@@H](Cc3ccc(O)cc3)C(=O)O)NC(=O)[C@H](CCC(N)=O)NC(=O)[C@H](Cc3c[nH]c4ccccc34)NC(=O)[C@H](CCCNC(N)=O)NC(=O)[C@H](CSSC[C@H](NC(=O)CN)C(=O)N2)NC(=O)[C@H](CCCNC(=N)N)NC(=O)[C@@H]2CCCN2C(=O)[C@H](CC(=O)O)NC1=O [Ih, L-tyrosine, glycyl-L-cysteinyl-(2S)-2-aminobutanoyl-L-threonyl-L-α-aspartyl-L-prolyl-L-arginyl-L-cysteinyl-N5-(aminocarbonyl)-L-ornithyl-L-tryptophyl-L-glutaminyl-L-(2S)-2-aminobutanoyl-cyclic (2→8)-disulfide-cyclic 3^4,12^4-(1H-1,2,3-triazole-4,1-diyl)] (H-GC[Hpra]TDPRC[Cit]WQ[Aha]Y-OH; disulfide 2-8; triazole 3-12)	8.5 ± 1.1 nM	8 ± 1.5 nM
C[C@@H](O)[C@@H]1NC(=O)[C@@H]2CCn3cc(nn3)CC[C@@H](C(=O)N[C@@H](Cc3ccc(O)cc3)C(=O)O)NC(=O)[C@H](CCC(N)=O)NC(=O)[C@H](Cc3c[nH]c4ccccc34)NC(=O)[C@H](CCCNC(N)=O)NC(=O)[C@H](CSSC[C@H](NC(=O)CN)C(=O)N2)NC(=O)[C@H](CCCNC(=N)N)NC(=O)[C@@H]2CCCN2C(=O)[C@H](CC(=O)O)NC1=O [Ii, L-tyrosine, glycyl-L-cysteinyl-(2S)-2-aminobutanoyl-L-threonyl-L-α-aspartyl-L-prolyl-L-arginyl-L-cysteinyl-N5-(aminocarbonyl)-L-ornithyl-L-tryptophyl-L-glutaminyl-L-(2S)-2-aminobutanoyl-cyclic (2→8)-disulfide-cyclic 3^4,12^4-(1H-1,2,3-triazole-1,4-diyl)] (H-GC[Aha]TDPRC[Cit]WQ[Hpra]Y-OH; disulfide 2-8; triazole 3-12)	1.6 ± 0.6 nM	3.4 ± 1.4 nM
C[C@@H](O)[C@@H]1NC(=O)[C@@H]2Cc3cn(nn3)CCC[C@@H](C(=O)N[C@@H](Cc3ccccc3)C(=O)O)NC(=O)[C@H](CCC(N)=O)NC(=O)[C@H](Cc3c[nH]c4ccccc34)NC(=O)[C@H](CCCNC(N)=O)NC(=O)[C@H](CSSC[C@H](NC(=O)CN)C(=O)N2)NC(=O)[C@H](CCCNC(=N)N)NC(=O)[C@@H]2CCCN2C(=O)[C@H](CC(=O)O)NC1=O [Il, L-phenylalanine, glycyl-L-cysteinyl-L-alanyl-L-threonyl-L-α-aspartyl-L-prolyl-L-arginyl-L-cysteinyl-N5-(aminocarbonyl)-L-ornithyl-L-tryptophyl-L-glutaminyl-L-norvalyl-cyclic (2→8)-disulfide-cyclic 3^3,12^5-(1H-1,2,3-triazole-4,1-diyl)] (H-GC[Pra]TDPRC[Cit]WQ[Orn(N3)]F-OH; disulfide 2-8; triazole 3-12)		11 ± 1.4 nM
C[C@@H](O)[C@@H]1NC(=O)[C@@H]2Cc3cn(nn3)CCC[C@@H](C(=O)N[C@H](Cc3ccc(O)cc3)C(=O)O)NC(=O)[C@H](CCC(N)=O)NC(=O)[C@H](Cc3c[nH]c4ccccc34)NC(=O)[C@H](CCCNC(N)=O)NC(=O)[C@H](CSSC[C@H](NC(=O)CN)C(=O)N2)NC(=O)[C@H](CCCNC(=N)N)NC(=O)[C@@H]2CCCN2C(=O)[C@H](CC(=O)O)NC1=O [Im, D-tyrosine, glycyl-L-cysteinyl-L-alanyl-L-threonyl-L-α-aspartyl-L-prolyl-L-arginyl-L-cysteinyl-N5-(aminocarbonyl)-L-ornithyl-L-tryptophyl-L-glutaminyl-L-norvalyl-cyclic (2→8)-disulfide-cyclic 3^3,12^5-(1H-1,2,3-triazole-4,1-diyl)] (H-GC[Pra]TDPRC[Cit]WQ[Orn(N3)][dY]-OH; disulfide 2-8; triazole 3-12)		50 ± 1.2 nM
C[C@@H](O)[C@@H]1NC(=O)[C@@H]2Cc3cn(nn3)CCC[C@@H](C(=O)N[C@H](CCCNC(=N)N)C(=O)O)NC(=O)[C@H](CCC(N)=O)NC(=O)[C@H](Cc3c[nH]c4ccccc34)NC(=O)[C@H](CCCNC(N)=O)NC(=O)[C@H](CSSC[C@H](NC(=O)CN)C(=O)N2)NC(=O)[C@H](CCCNC(=N)N)NC(=O)[C@@H]2CCCN2C(=O)[C@H](CC(=O)O)NC1=O [Is, D-arginine, glycyl-L-cysteinyl-L-alanyl-L-threonyl-L-α-aspartyl-L-prolyl-L-arginyl-L-cysteinyl-N5-(aminocarbonyl)-L-ornithyl-L-tryptophyl-L-glutaminyl-L-norvalyl-cyclic (2→8)-disulfide-cyclic 3^3,12^5-(1H-1,2,3-triazole-4,1-diyl)] (H-GC[Pra]TDPRC[Cit]WQ[Orn(N3)][dR]-OH; disulfide 2-8; triazole 3-12)		59 nM
